Patent EP0117811A2, “Fungicidal pharmaceutical compositions for oral administration” (SANOFI S.A., priority 1983, dated 1984)
Where two headings read alike, the source gives them in different places.

Experiment: Bioavailability in the baboon: plasma levels of omoconazole after oral administration (microbiological agar diffusion assay, test germ Candida macedoniensis)
Type: in vivo, babouin
Conditions: fasted baboons
Description: La biodisponibilité des compositions pharmaceutiques selon l'invention a été étudiée chez le babouin en comparaison avec le produit (I) seul.
Les études ont été conduites à la dose de 100 mg/kg d'omoconazole et les produits ont été administrés aux singes à jeun par sonde gastrique. […] Les dosages des taux plasmatiques d'omoconazole ont été effectués par une méthode microbiologique réalisée à l'aide d'une technique de diffusion en milieu gélosé avec comme germe test Candida macedoniensis.
Des essais ont été effectués selon la même méthode, avec les formulations des exemples 4, 5, 6, 9 et 14. Pour les 3 premiers cas, les formulations ont été administrées telles quelles (solution) tandis que les compositions des exemples 9 et 14 et l'omoconazole ont été administrés dans des gélules No. 2. […]

AUC (baboon, 100 mg/kg omoconazole oral, mean of 4 animals, Ex 4, 5, 6 given as such, Ex 9, 14 and omoconazole in No. 2 capsules, read-out: Aire sous la courbe): 11600 ng·h/mL
Cmax (baboon, 100 mg/kg omoconazole oral, mean of 4 animals, Ex 4, 5, 6 given as such, Ex 9, 14 and omoconazole in No. 2 capsules, read-out: Concentration maximale): 1350 ng/mL
Tmax (baboon, 100 mg/kg omoconazole oral, mean of 4 animals, Ex 4, 5, 6 given as such, Ex 9, 14 and omoconazole in No. 2 capsules, read-out: Temps de C. Max.): 5.5 h
AUC at 24 h (baboon, po, 100 mg/kg omoconazole by gastric tube, mean of 3 animals, sampling up to 24 h, read-out: aire sous la courbe): 11500 ng·h/mL
Cmax (100 mg/kg omoconazole by gastric tube, mean of 3 animals): 1,35 µg/ml
Compound: C/C(=C(/OCCOc1ccc(Cl)cc1)c1ccc(Cl)cc1Cl)n1ccnc1 [Omoconazole]
